Experimental data taken from US20090025713A1, “Nebulised Antibiotics for Inhalation Therapy” (priority 2006, published 2009).
“And” between values parts separate entries of the source, which are not always exact repeats. Equal values may be shown once.

Tested on: Calu-3 cells
Assay: Cellular tolerability test: TEER of Calu-3 monolayers
Assay type: cell-based, human
Conditions: for TEER after 2 hours Mean [%]: in KRB; for effect on vitality of Calu-3 cells (in words): summary of Table 1
Text: In addition to the physicochemical properties of drug formulations and their stability, either as solution or dispersed systems, it is helpful to investigate the cellular tolerability of such drug formulations in a cell culture test system. For this purpose the bronchial cell line Calu-3 was used as an in vitro model for toxicity assessment. Calu-3 represents a human submucosal adenocarcinoma cell line that forms tight, polarized and well differentiated monolayers with apical microvilli and tight junctional complexes. In contrast to other cell lines, Calu-3 cells generate extracellular mucus. […] In addition, it has been shown that loss of monolayer integrity is paralleled by a decrease in TEER to values below 600Ω·cm^2 and an increase in permeability. […] Since toxicity is paralleled by a loss of the monolayer integrity, a decrease in TEER of more than 50% is indicative for the toxicity of a test compound. […] The Calu-3 cell tests offer the possibility to investigate potential effects of the drug substance as well as the influence of excipients or formulation constituents.
TEER was determined in physiological Krebs Ringer buffer (KRB) for two hours after the application of the different formulations or excipients. A decrease of the measured resistance indicated an affection of intact epithelial cell-cell contacts (tight junctions), which is an extremely sensitive parameter to determine toxic effects. To assess whether such cell damage was reversible, the cells were incubated for 24 h in cell culture subsequently to the incubation with the test formulations.

[1] = conc. (undiluted), after 24 h in cell culture following incubation
[2] = conc. (undiluted; stock concentration given with each formulation name)
[3] = dilution 1:5, after 24 h in cell culture following incubation
[4] = dilution 1:10, after 24 h in cell culture following incubation

With Vitamin E TPGS the “TEER after 24 hours Mean [%]” value [1] was 50%, the “TEER after 2 hours Mean [%]” value [2] was 47% and the “TEER after 24 hours Mean [%]” value [3] was 49%. The “TEER after 2 hours Mean [%]” value (dilution 1:5) was 48%, the “TEER after 24 hours Mean [%]” value [4] was 51% and the “TEER after 2 hours Mean [%]” value (dilution 1:10) was 47%.
“2-hydroxypropyl-β-cyclodextrin [Example 2-HP-β-CD]” was tested, and the “TEER after 24 hours Mean [%]” value [1] was 45%, the “TEER after 2 hours Mean [%]” value [2] was 59% and the “TEER after 24 hours Mean [%]” value [3] was 77%. For the same compound, the “TEER after 2 hours Mean [%]” value (dilution 1:5) was 86%, the “TEER after 24 hours Mean [%]” value [4] was 73% and the “TEER after 2 hours Mean [%]” value (dilution 1:10) was 90%.
CCCCCCCCCCCCOS(=O)(=O)[O-].[Na+] [SDS, reference compound] was tested, and the “TEER after 24 hours Mean [%]” value (positive control, 0.1% w/v in KRB, passages p44U, p45U, p46U, p47U) was 10% and 6% and 8%.
For O=C1O[C@H]([C@@H](O)CO)C([O-])=C1O.[Na+] [Sodium Ascorbate], the “TEER after 24 hours Mean [%]” value [1] was 70%, the “TEER after 2 hours Mean [%]” value [2] was 22% and the “TEER after 24 hours Mean [%]” value [3] was 66%. For the same compound, the “TEER after 2 hours Mean [%]” value (dilution 1:5) was 70%, the “TEER after 24 hours Mean [%]” value [4] was 51% and the “TEER after 2 hours Mean [%]” value (dilution 1:10) was 57%.
OC[C@H]1O[C@@H]2O[C@H]3[C@H](O)[C@@H](O)[C@@H](O[C@H]4[C@H](O)[C@@H](O)[C@@H](O[C@H]5[C@H](O)[C@@H](O)[C@@H](O[C@H]6[C@H](O)[C@@H](O)[C@@H](O[C@H]7[C@H](O)[C@@H](O)[C@@H](O[C@H]8[C@H](O)[C@@H](O)[C@@H](O[C@H]9[C@H](O)[C@@H](O)[C@@H](O[C@H]1[C@H](O)[C@H]2O)O[C@@H]9CO)O[C@@H]8CO)O[C@@H]7CO)O[C@@H]6CO)O[C@@H]5CO)O[C@@H]4CO)O[C@@H]3CO [Gamma-CD, γ-cyclodextrin] was tested, and the “TEER after 24 hours Mean [%]” value [1] was 41%, the “TEER after 2 hours Mean [%]” value [2] was 61% and the “TEER after 24 hours Mean [%]” value [3] was 46%. For the same compound, the “TEER after 2 hours Mean [%]” value (dilution 1:5) was 69%, the “TEER after 24 hours Mean [%]” value [4] was 44% and the “TEER after 2 hours Mean [%]” value (dilution 1:10) was 65%.
In the case of O=C1NS(=O)(=O)c2ccccc21.[Na] [Saccharin-Natrium], the “TEER after 24 hours Mean [%]” value [1] is reported as 43%, the “TEER after 2 hours Mean [%]” value [2] is reported as 55% and the “TEER after 24 hours Mean [%]” value [3] is reported as 50%. For the same compound, the “TEER after 2 hours Mean [%]” value (dilution 1:5) was 55%.
O=C(O)CC(O)(CC(=O)O)C(=O)O [Citric acid] was tested, and the “TEER after 24 hours Mean [%]” value [1] was 53%, the “TEER after 2 hours Mean [%]” value [2] was 105% and the “TEER after 24 hours Mean [%]” value [3] was 44%. For the same compound, the “TEER after 2 hours Mean [%]” value (dilution 1:5) was 40%.
With NC[C@H]1O[C@H](O[C@H]2[C@H](O)[C@@H](O[C@H]3O[C@H](CO)[C@@H](O)[C@H](N)[C@H]3O)[C@H](N)C[C@@H]2N)[C@H](N)C[C@@H]1O [Tobramycin (T100), Tobramycin, reference compound] the “TEER after 24 hours Mean [%]” value [1] was 46%, the “TEER after 2 hours Mean [%]” value [2] was 94% and the “TEER after 24 hours Mean [%]” value [3] was 79%. For the same compound, the “TEER after 2 hours Mean [%]” value (dilution 1:5) was 123% and the “effect on vitality of Calu-3 cells (in words)” value was “No damaging effect”.
With Captisol the “TEER after 24 hours Mean [%]” value [1] was 58%, the “TEER after 2 hours Mean [%]” value [2] was 114% and the “TEER after 24 hours Mean [%]” value [3] was 56%. The “TEER after 2 hours Mean [%]” value (dilution 1:5) was 98%, the “TEER after 24 hours Mean [%]” value [4] was 66% and the “TEER after 2 hours Mean [%]” value (dilution 1:10) was 83%.
With C[C@@H]1[C@H](O)[C@@H](C)/C=C/C=C/C=C/C=C/C=C/C=C/C=C/[C@H](O[C@@H]2O[C@H](C)[C@@H](O)[C@H](N)[C@@H]2O)C[C@@H]2O[C@](O)(C[C@@H](O)C[C@@H](O)[C@H](O)CC[C@@H](O)C[C@@H](O)CC(=O)O[C@H]1C)C[C@H](O)[C@H]2C(=O)O [Amphotericin B, reference compound] the “TEER after 24 hours Mean [%]” value [1] was 67%, the “TEER after 2 hours Mean [%]” value [2] was 108% and the “TEER after 24 hours Mean [%]” value [3] was 64%. For the same compound, the “TEER after 2 hours Mean [%]” value (dilution 1:5) was 80% and the “effect on vitality of Calu-3 cells (in words)” value was “No damaging effect”.
